Values of other authors in patent US8273732B2, “Compositions for combating beta-lactamase-medicated antibiotic resistance using beta-lactamase inhibitors useful for injection” (Venus Remedies Limited, priority 2004, dated 2012).
Values after ≈ are worked out from the molar mass of the structure shown. Structures can show the parent of a compound that is named as a salt.

Key:
Acinetobacter baumannii = conditions: 156 clinical isolates of A. baumannii

Compound | MIC (90) (Acinetobacter baumannii) [µg/mL] | solubility in ethanol (ethanol) | solubility in methanol (methanol) | solubility in water (water)
CC1(C)[C@H](C(=O)O)N2C(=O)C[C@H]2S1(=O)=O [Sulbactam, sulbactam] | 32 (≈ 137 µM) | – | – | –
CO/N=C(\C(=O)N[C@@H]1C(=O)N2C(C(=O)O)=C(CSc3nc(=O)c(=O)[nH]n3C)CS[C@H]12)c1csc(N)n1 [ceftriaxone sodium, (6R,7R)-7-[2-(2-amino-4-thiazolyl)glyoxylamido]-8-oxo-3-[[(1,2,5,6-tetrahydro-2-methyl-5,6-dioxo-as-triazin-3-yl)thio]methyl]-5-thia-1-azabicyclo[4.2.0]oct-2-ene-2-carboxylic acid, 7^2-(Z)-(O-methyloxime), disodium salt, sesquaterhydrate] | – | very slightly soluble | sparingly soluble | readily soluble
